Legend:
Test in all cases: MIC by standard blood agar dilution technique
Enterococcus = conditions: MR fuc +
Text: (§1) The following bacteria were investigated: methicillin-resistant Staphylococcus aureus (MSRA), fucidic acid-resistant S. aureus, non-resistant S. pyogenes, coagulation-negative staphylococci (for resistance, see Table 1 below) vancomycin-resistant enterococci (Enterococcus CCUG van A and van B), non-resistant Escherichia coli, Acinetobacter resistant against cefadroxil, nitrofurantin, mecillinam, Serratia maltophilia resistant against most types of antibiotics, Enterobacter (for resistance, see Table 1 below; additionally resistant against cefadroxil and nitrofurantin), non-resistant α-streptococci, non-resistant Streptococcus Group G, Pseudomonas aeruginosa (for resistance, see Table 2 below). Inocula of 10^3 and 10^5 bacteria were used.

Escherichia coli = system: Escherichia coli
Text: as §1

Enterobacter = conditions: MR tri −
Text: as §1

Alphastreptococci = conditions: inoculate size 10^3
Text: as §1

S. pyogenes, group A = system: S. pyogenes, group A
Text: as §1

Streptococcus group G = conditions: inoculate size 10^3
Text: as §1

Streptococcus group C = conditions: inoculate size 10^3
Text: as §1

Acinetobacter = conditions: inoculate size 10^3
Text: as §1

S. maltophilia = conditions: inoculate size 10^3
Text: as §1

OCCCCCO [pentane-1,5-diol]
MIC (% by weight of pentane-1,5-diol) (Enterococcus; Enterococcus 921 × 57057, inoculate size 10^3, van −, tri −): 7.5 % by weight
MIC (% by weight of pentane-1,5-diol) (Enterococcus; Enterococcus 921 × 57057, inoculate size 10^5, van −, tri −): 10.9 % by weight
MIC (% by weight of pentane-1,5-diol) (Enterococcus; Enterococcus 921 × 57093, inoculate size 10^3, van −, tri +): 7.5 % by weight
MIC (% by weight of pentane-1,5-diol) (Enterococcus; Enterococcus 921 × 57093, inoculate size 10^5, van −, tri +): 10.0 % by weight
MIC (% by weight of pentane-1,5-diol) (Enterococcus; Enterococcus 921 × 57158, inoculate size 10^3, van −, tri +): 7.5 % by weight
MIC (% by weight of pentane-1,5-diol) (Enterococcus; Enterococcus 921 × 57158, inoculate size 10^5, van −, tri +): 7.5 % by weight
MIC (% by weight of pentane-1,5-diol) (Enterococcus; Enterococcus CCUG 37593 vanB, inoculate size 10^3, van +): 5.0 % by weight
MIC (% by weight of pentane-1,5-diol) (Enterococcus; Enterococcus CCUG 37593 vanB, inoculate size 10^5, van +): 7.5 % by weight
MIC (% by weight of pentane-1,5-diol) (Enterococcus; Enterococcus CCUG 37832 vanA, inoculate size 10^3, van +): 5.0 % by weight
MIC (% by weight of pentane-1,5-diol) (Enterococcus; Enterococcus CCUG 37832 vanA, inoculate size 10^5, van +): 7.5 % by weight
MIC (% by weight of pentane-1,5-diol) (Enterococcus; Enterococcus CCUG 39128 vanA, inoculate size 10^3, van +): 5.0 % by weight
MIC (% by weight of pentane-1,5-diol) (Enterococcus; Enterococcus CCUG 39128 vanA, inoculate size 10^5, van +): 10.0 % by weight
MIC (% by weight of pentane-1,5-diol) (Enterococcus; Enterococcus CCUG 43324 vanA, inoculate size 10^3, van +): 7.5 % by weight
MIC (% by weight of pentane-1,5-diol) (Enterococcus; Enterococcus CCUG 43324 vanA, inoculate size 10^5, van +): 10.0 % by weight
MIC (% by weight of pentane-1,5-diol) (Escherichia coli; E. coli 921 × 57387, inoculate size 10^3, MR tri +): 5.0 % by weight
MIC (% by weight of pentane-1,5-diol) (Escherichia coli; E. coli 921 × 57387, inoculate size 10^5, MR tri +): 10.0 % by weight
MIC (% by weight of pentane-1,5-diol) (Escherichia coli; E. coli 921 × 57388, inoculate size 10^3): 5.0 % by weight
MIC (% by weight of pentane-1,5-diol) (Escherichia coli; E. coli 921 × 57388, inoculate size 10^5): 10.0 % by weight
MIC (% by weight of pentane-1,5-diol) (Escherichia coli; E. coli 921 × 57389, inoculate size 10^3): 5.0 % by weight
MIC (% by weight of pentane-1,5-diol) (Escherichia coli; E. coli 921 × 57389, inoculate size 10^5): 10.0 % by weight
MIC (% by weight of pentane-1,5-diol) (Escherichia coli; E. coli 921 × 57397, inoculate size 10^3): 5.0 % by weight
MIC (% by weight of pentane-1,5-diol) (Escherichia coli; E. coli 921 × 57397, inoculate size 10^5): 10.0 % by weight
MIC (% by weight of pentane-1,5-diol) (Escherichia coli; E. coli 921 × 57418, inoculate size 10^3): 5.0 % by weight
MIC (% by weight of pentane-1,5-diol) (Escherichia coli; E. coli 921 × 57418, inoculate size 10^5): 10.0 % by weight
MIC (% by weight of pentane-1,5-diol) (Enterobacter; Enterobacter 921 × 57097, inoculate size 10^3): 5.0 % by weight
MIC (% by weight of pentane-1,5-diol) (Enterobacter; Enterobacter 921 × 57097, inoculate size 10^5): 10.0 % by weight
MIC (% by weight of pentane-1,5-diol) (Enterobacter; Enterobacter 921 × 57100, inoculate size 10^3): 5.0 % by weight
MIC (% by weight of pentane-1,5-diol) (Enterobacter; Enterobacter 921 × 57100, inoculate size 10^5): 10.0 % by weight
MIC (% by weight of pentane-1,5-diol) (Enterobacter; Enterobacter 921 × 57119, inoculate size 10^3): 5.0 % by weight
MIC (% by weight of pentane-1,5-diol) (Enterobacter; Enterobacter 921 × 57119, inoculate size 10^5): 10.0 % by weight
MIC (% by weight of pentane-1,5-diol) (Enterobacter; Enterobacter 921 × 57416, inoculate size 10^3): 5.0 % by weight
MIC (% by weight of pentane-1,5-diol) (Enterobacter; Enterobacter 921 × 57416, inoculate size 10^5): 10.0 % by weight
MIC (% by weight of pentane-1,5-diol) (Enterobacter; Enterobacter 921 × 57514, inoculate size 10^3): 5.0 % by weight
MIC (% by weight of pentane-1,5-diol) (Enterobacter; Enterobacter 921 × 57514, inoculate size 10^5): 10.0 % by weight
MIC (% by weight of pentane-1,5-diol) (Enterobacter; Enterobacter 921 × 57574, inoculate size 10^3): 5.0 % by weight
MIC (% by weight of pentane-1,5-diol) (Enterobacter; Enterobacter 921 × 57574, inoculate size 10^5): 10.0 % by weight
MIC (% by weight of pentane-1,5-diol) (Alphastreptococci; Alphastreptococci 912 × 1135): 7.5 % by weight
MIC (% by weight of pentane-1,5-diol) (Alphastreptococci; Alphastreptococci 912 × 1137): 5.0 % by weight
MIC (% by weight of pentane-1,5-diol) (Alphastreptococci; Alphastreptococci 912 × 1138): 5.0 % by weight
MIC (% by weight of pentane-1,5-diol) (Alphastreptococci; Alphastreptococci 912 × 1139): 7.5 % by weight
MIC (% by weight of pentane-1,5-diol) (Alphastreptococci; Alphastreptococci 912 × 1200): 7.5 % by weight
MIC (% by weight of pentane-1,5-diol) (S. pyogenes, group A; group A 912 × 1090, inoculate size 10^3): 7.5 % by weight
MIC (% by weight of pentane-1,5-diol) (S. pyogenes, group A; group A 912 × 1115, inoculate size 10^3): 7.5 % by weight
MIC (% by weight of pentane-1,5-diol) (S. pyogenes, group A; group A 912 × 1119, inoculate size 10^3): 7.5 % by weight
MIC (% by weight of pentane-1,5-diol) (S. pyogenes, group A; group A 912 × 1121, inoculate size 10^3): 7.5 % by weight
MIC (% by weight of pentane-1,5-diol) (S. pyogenes, group A; group A 912 × 1131, inoculate size 10^3): 7.5 % by weight
MIC (% by weight of pentane-1,5-diol) (Streptococcus group G; Strepotocccus group G 912 × 1106): 7.5 % by weight
MIC (% by weight of pentane-1,5-diol) (Streptococcus group G; Streptococcus group G 900 × 1714): 10.0 % by weight
MIC (% by weight of pentane-1,5-diol) (Streptococcus group G; Streptococcus group G 915 × 1095): 7.5 % by weight
MIC (% by weight of pentane-1,5-diol) (Streptococcus group G; Streptococcus group G 915 × 1146): 7.5 % by weight
MIC (% by weight of pentane-1,5-diol) (Streptococcus group G; Streptococcus group G 916 × 10985): 7.5 % by weight
MIC (% by weight of pentane-1,5-diol) (Streptococcus group C; Streptococcus group C 900 × 1618): 7.5 % by weight
MIC (% by weight of pentane-1,5-diol) (Streptococcus group C; Streptococcus group C 912 × 1114): 10.0 % by weight
MIC (% by weight of pentane-1,5-diol) (Streptococcus group C; Streptococcus group C 912 × 1185): 10.0 % by weight
MIC (% by weight of pentane-1,5-diol) (Acinetobacter; Acinetobacter 116 × 305): 5.0 % by weight
MIC (% by weight of pentane-1,5-diol) (Acinetobacter; Acinetobacter 117 × 217): 5.0 % by weight
MIC (% by weight of pentane-1,5-diol) (Acinetobacter; Acinetobacter 514 × 1224): 5.0 % by weight
MIC (% by weight of pentane-1,5-diol) (Acinetobacter; Acinetobacter 516 × 748): 2.5 % by weight
MIC (% by weight of pentane-1,5-diol) (Acinetobacter; Acinetobacter 921 × 16968): 5.0 % by weight
MIC (% by weight of pentane-1,5-diol) (Acinetobacter; Acinetobacter 921 × 113359): 2.5 % by weight
MIC (% by weight of pentane-1,5-diol) (S. maltophilia; S. maltophilia 515 × 695): 5.0 % by weight
MIC (% by weight of pentane-1,5-diol) (S. maltophilia; S. maltophilia 515 × 1269): 2.5 % by weight
MIC (% by weight of pentane-1,5-diol) (S. maltophilia; S. maltophilia 516 × 679): 5.0 % by weight
MIC (% by weight of pentane-1,5-diol) (S. maltophilia; S. maltophilia 900 × 1230): 5.0 % by weight
MIC (% by weight of pentane-1,5-diol) (S. maltophilia; S. maltophilia 921 × 16157): 5.0 % by weight

From US7973080B2 (Ambria Dermatology AB, priority 2003, dated 2011)
